Assay results published in patent EP0902088A2, “Peptides with antiproliferative properties” (Radulescu, Razvan T., priority 1996, dated 1999).
“Also recorded” adds a separate entry of the source.

How the values were obtained:
SAOS-2-Zellen = experiment: Cell cycle analysis by FACS in SAOS-2 osteosarcoma cells; format: cell-based, human
Excerpt: (§1) Die eine Versuchsanordnung beinhaltet Versuche mit der humanen intaktes Retinoblastomprotein enthaltenden Mammakarzinom-Zell-Linie MCF-7 bzw. der humanen defektes Retinoblastomprotein enthaltenden Osteosarkom-Zell-Linie SAOS-2. Man sät die Zellen zuerst in 12-well-Platten 100.000 (= Hunderttausend) Zellen/-well/ml RPMI oder DMEM/10% FCS) aus, läßt sie 24 Stunden adhärieren, hungert sie anschließend 3 Tage in DMEM ohne FCS mit dem Zweck, die Zellen in der G0/G1-Phase zu synchronisieren, und stimuliert sie dann entweder mit 10% FCS oder 10^-8 M IGF-1 oder 10^-6 M Insulin für 24 Stunden, wobei der Effekt der jeweils zugegebenen Peptide auf die jeweilige Stimulation, die ein Maß für die Zellteilungsrate ist, untersucht wird. Die Kontrollgruppe (G0/G1-synchronisierte Zellen) wird zum Zeitpunkt 0 nach der dreitägigen Hungerphase fixiert, die restlichen Zellen (+/- Peptid) werden nach 24 Stunden fixiert. Daraufhin werden die Zellen zwecks Zellzyklusanalyse im FACS analysiert. Analoge Methoden finden sich beispielsweise bei R. Fahraeus et al., Current Biology, 1996, Vol. 6, No. 1, pp 84-91 sowie bei L. Zhu et al., Genes & Development, 1993, Vol. 7, pp. 1111-1125.

K562-Zellen = experiment: Cytotoxicity by trypan blue counting in K562 leukaemia cells; format: cell-based; conditions: asynchronous K562 in RPMI with 10 % FCS, peptide 10^-5M, several time points
Excerpt: Fig. 13 zeigt, daß der zytotoxische Effekt des erfindungsgemäßen Peptids P3 [10^-5M] auf asynchrone K562-Zellen, die in RPMI-Zellkulturmedium mit 10 % FCS inkubiert wurden, zeitabhängig ist. Die Ergebnisse wurden aufgetragen als lebende mit P3 behandelte Zellen als Prozent der lebenden mit P3 nicht behandelten Zellen. Die Zahl der lebenden Zellen wurde ermittelt, indem man mindestens 200 Zellen mit der Trypanblaumethode zu jedem angegebenen Zeitpunkt auszählte.
(§2) Die zweite Versuchsanordnung betrifft die Leukämie-Zell-Linien K562 und CCRF-CEM und CCRF-CEM/ACT400. Hierbei wurden jeweils 100.000 asynchrone Zellen/well/ml RPMI/10% FCS für 48 Stunden mit den jeweiligen Peptiden in 6-well-Platten inkubiert. Als Readout gilt die Anzahl der mit Hilfe der Trypanblaufärbung (L.D. Attardi et al., The EMBO Journal, 1996, Vol. 15, No. 14, pp. 3693-3701 und M.K. Reeder & H.C. Isom, Cell Growth & Differentiation, 1996, Vol. 7, pp. 449-460) nach 48 Stunden Inkubationszeit festgestellten toten Zellen/200 ausgezählte Zellen. Je mehr tote Zellen, desto zytotoxischer das Peptid und damit umso effektiver.

[1] = tested on: CCRF-CEM/ACT 400resistent-Zellen; experiment: Cytotoxicity by trypan blue counting in CCRF-CEM/ACT 400 (resistant) leukaemia cells; format: cell-based; conditions: asynchronous CCRF-CEM/ACT 400 (resistant) in RPMI with 10 % FCS; peptide 10^-5
Excerpt: as §2

CCRF-CEMsensitiv = experiment: Cytotoxicity by trypan blue counting in CCRF-CEM (sensitive) leukaemia cells; format: cell-based; conditions: asynchronous CCRF-CEM (sensitive) in RPMI with 10 % FCS; peptide 10^-5
Excerpt: as §2

[2] = tested on: normale humane mononukleäre Zellen des peripheren Blutes; experiment: Effect on normal peripheral blood mononuclear cells; format: cell-based, human; conditions: peptide 10^-5, 24 h incubation
Excerpt: Fig. 15 zeigt, daß das erfindungsgemäße Peptid P3 [10^-5] keinen Effekt auf normale humane mononukleäre Zellen des peripheren Blutes hat, unabhängig davon, ob diese sich in einem ruhenden (a) oder aktivierten (b) Zustand befinden. […] Die Inkubation der Zellen mit P3 erfolgte für einen Zeitraum von 24 Stunden.

MCF-7-Zellen = experiment: Cell cycle analysis by FACS in MCF-7 breast carcinoma cells; format: cell-based, human
Excerpt: as §1, with “[…],” for “hungert sie anschließend 3 Tage in DMEM ohne FCS mit dem Zweck, die Zellen in der G0/G1-Phase zu synchronisieren,”

[3] = G0/G1-synchronised SAOS-2 cells, serum-free, peptide 10^-5M
[4] = SAOS-2 stimulated with 10 % FS, peptide 10^-5M
[5] = G0/G1-synchronised MCF-7 cells, serum-free, peptide 10^-5M
[6] = MCF-7 stimulated with EGF 10^-8, peptide 10^-5M
[7] = MCF-7 stimulated with IGF-1 10^-8M, peptide 10^-5M
[8] = MCF-7 stimulated with Östradiol (E2) 10^-9M, peptide 10^-5M
[9] = asynchronous MCF-7 in DMEM with 10 % FCS, peptide 10^-5M
[10] = SAOS-2 stimulated with 10 % FCS, peptide 5 x 10^-5M
[11] = MCF-7 stimulated with Insulin 10^-6M, peptide 10^-5M

Molecule: CC(C)C[C@@H](N)C(=O)N[C@H](Cc1ccccc1)C(=O)N[C@H](Cc1ccc(O)cc1)C(=O)N[C@H](CCCCN)C(=O)N[C@H](CCCCN)C(=O)N[C@@H](C(=O)NCC(=O)NCC(=O)NCC(=O)NCCCC[C@H](NC(=O)CNC(=O)CNC(=O)CNC(=O)[C@H](NC(=O)[C@@H](CCCCN)NC(=O)[C@@H](CCCCN)NC(=O)[C@@H](Cc1ccc(O)cc1)NC(=O)[C@@H](Cc1ccccc1)NC(=O)[C@H](N)CC(C)C)C(C)C)C(=O)N[C@H](CCCNC(=N)N)C(=O)NCC(=O)NCCCC[C@H](NC(=O)CNC(=O)[C@@H](CCCNC(=N)N)NC(=O)[C@H](CCCCNC(=O)CNC(=O)CNC(=O)CNC(=O)[C@H](NC(=O)[C@@H](CCCCN)NC(=O)[C@@H](CCCCN)NC(=O)[C@@H](Cc1ccc(O)cc1)NC(=O)[C@@H](Cc1ccccc1)NC(=O)[C@H](N)CC(C)C)C(C)C)NC(=O)CNC(=O)CNC(=O)CNC(=O)[C@H](NC(=O)[C@@H](CCCCN)NC(=O)[C@@H](CCCCN)NC(=O)[C@@H](Cc1ccc(O)cc1)NC(=O)[C@@H](Cc1ccccc1)NC(=O)[C@H](N)CC(C)C)C(C)C)C(=O)NCC(=O)O)C(C)C (racemic) [P3, NH2-[dL-dF-dY-dK-dK-dV-GGG]4-[lK-dR-G]2-lK-G-COOH]
- G1-Phase (SAOS-2-Zellen; [3]): vermindert
- G2-Phase (SAOS-2-Zellen; [3]): erhöht
- Morphologie der behandelten Zellen (SAOS-2-Zellen; [3]): entspricht der apoptotischer Zellen
- S-Phase (SAOS-2-Zellen; [3]): erhöht
- G1-Phase (SAOS-2-Zellen; [4]): Zunahme
- Morphologie der behandelten Zellen (SAOS-2-Zellen; [4]): entspricht der apoptotischer Zellen
- S-Phase (SAOS-2-Zellen; [4]): Abnahme
- zytotoxische Effekt (lebende mit P3 behandelte Zellen als Prozent der lebenden mit P3 nicht behandelten Zellen) (K562-Zellen): zeitabhängig
- zytotoxischer Effekt [1]: zytotoxisch
- zytotoxischer Effekt (CCRF-CEMsensitiv): zytotoxisch
- Effekt auf normale humane mononukleäre Zellen des peripheren Blutes ([2]; activated state (b)): keinen Effekt
- morphologische Veränderungen ([2]; resting or activated cells): keine morphologischen Veränderungen
- Effekt auf normale humane mononukleäre Zellen des peripheren Blutes ([2]; resting state (a)): keinen Effekt
- G1-Phase (MCF-7-Zellen; [5]): vermindert
- Morphologie der behandelten Zellen (MCF-7-Zellen; [5]): entspricht der apoptotischer Zellen
- S-Phase (MCF-7-Zellen; [5]): erhöht
- G1-Phase (MCF-7-Zellen; [6]): Zunahme
- G2-Phase (MCF-7-Zellen; [6]): Zunahme
- Morphologie der behandelten Zellen (MCF-7-Zellen; [6]): entspricht der apoptotischer Zellen
- S-Phase (MCF-7-Zellen; [6]): Abnahme
- Morphologie der behandelten Zellen (MCF-7-Zellen; MCF-7 stimulated with IGF-1 10^-8M, peptide 5 x 10^-6M): entspricht jeweils der apoptotischer Zellen
- G1-Phase (MCF-7-Zellen; [7]): Zunahme
- G2/M-Phase (MCF-7-Zellen; [7]): Zunahme
- Morphologie der behandelten Zellen (MCF-7-Zellen; [7]): entspricht jeweils der apoptotischer Zellen
- S-Phase (MCF-7-Zellen; [7]): Abnahme
- durch IGF-1 [10^-8M] bedingte Fortschreiten des Zellzyklus (MCF-7-Zellen; MCF-7 stimulated with IGF-1 10^-8M, several peptide concentrations (Fig. 7)): in einer konzentrationsabhängigen Weise blockiert
- G1-Phase (MCF-7-Zellen; [8]): Zunahme
- G2-Phase (MCF-7-Zellen; [8]): Zunahme
- Morphologie der behandelten Zellen (MCF-7-Zellen; [8]): entspricht der apoptotischer Zellen
- S-Phase (MCF-7-Zellen; [8]): Abnahme
- G1-Phase (MCF-7-Zellen; [9]): vermindert
- Morphologie der behandelten Zellen (MCF-7-Zellen; [9]): entspricht der apoptotischer Zellen
- S-Phase (MCF-7-Zellen; [9]): erhöht

Molecule: CC(C)C[C@@H](NC(=O)[C@H](NC(=O)[C@H](N)CCCCN)C(C)C)C(=O)N[C@H](Cc1ccc(O)cc1)C(=O)N[C@H](Cc1ccccc1)C(=O)N[C@H](CCCCN)C(=O)NCC(=O)NCC(=O)NCC(=O)NCCCC[C@H](NC(=O)CNC(=O)CNC(=O)CNC(=O)[C@@H](CCCCN)NC(=O)[C@@H](Cc1ccccc1)NC(=O)[C@@H](Cc1ccc(O)cc1)NC(=O)[C@@H](CC(C)C)NC(=O)[C@H](NC(=O)[C@H](N)CCCCN)C(C)C)C(=O)N[C@H](CCCNC(=N)N)C(=O)NCC(=O)NCCCC[C@H](NC(=O)CNC(=O)[C@@H](CCCNC(=N)N)NC(=O)[C@H](CCCCNC(=O)CNC(=O)CNC(=O)CNC(=O)[C@@H](CCCCN)NC(=O)[C@@H](Cc1ccccc1)NC(=O)[C@@H](Cc1ccc(O)cc1)NC(=O)[C@@H](CC(C)C)NC(=O)[C@H](NC(=O)[C@H](N)CCCCN)C(C)C)NC(=O)CNC(=O)CNC(=O)CNC(=O)[C@@H](CCCCN)NC(=O)[C@@H](Cc1ccccc1)NC(=O)[C@@H](Cc1ccc(O)cc1)NC(=O)[C@@H](CC(C)C)NC(=O)[C@H](NC(=O)[C@H](N)CCCCN)C(C)C)C(=O)NCC(=O)O (racemic) [P7s, NH2-[dK-dV-dL-dY-dF-dK-GGG ]4-[lK-dR-G]2-lK-G-COOH]
- G1-Phase (MCF-7-Zellen; [7]): Zunahme
- G2/M-Phase (MCF-7-Zellen; [7]): Zunahme
- Morphologie der behandelten Zellen (MCF-7-Zellen; [7]): entspricht der apoptotischer Zellen
- S-Phase (MCF-7-Zellen; [7]): Abnahme

Molecule: CC[C@H](C)[C@H](NC(=O)[C@H](CCCCN)NC(=O)[C@@H](NC(=O)[C@H](CCC(N)=O)NC(=O)[C@H](CCCNC(=N)N)NC(=O)[C@@H](NC(=O)[C@H](CCCCN)NC(=O)[C@H](CCCCN)NC(=O)[C@H](Cc1ccc(O)cc1)NC(=O)[C@H](Cc1ccccc1)NC(=O)[C@@H](N)CC(C)C)C(C)C)[C@@H](C)CC)C(=O)N[C@@H](Cc1c[nH]c2ccccc12)C(=O)N[C@@H](Cc1ccccc1)C(=O)N[C@@H](CCC(N)=O)C(=O)N[C@@H](CC(N)=O)C(=O)N[C@@H](CCCNC(=N)N)C(=O)N[C@@H](CCCNC(=N)N)C(=O)N[C@@H](CCSC)C(=O)N[C@@H](CCCCN)C(=O)N[C@@H](Cc1c[nH]c2ccccc12)C(=O)N[C@@H](CCCCN)C(=O)N[C@@H](CCCCN)C(=O)O [P6, NH2-LFYKKVRQIKIWFQNRRMKWKK-COOH]
- G1-Phase (SAOS-2-Zellen; [10]): Zunahme
- S-Phase (SAOS-2-Zellen; [10]): Abnahme
- G1-Phase (MCF-7-Zellen; [5]): vermindert
- Morphologie der behandelten Zellen (MCF-7-Zellen; [5]): entspricht der apoptotischer Zellen
- S-Phase (MCF-7-Zellen; [5]): steigert
- G1-Phase (MCF-7-Zellen; [7]): Zunahme
- Morphologie der behandelten Zellen (MCF-7-Zellen; [7]): entspricht der apoptotischer Zellen
- S-Phase (MCF-7-Zellen; [7]): Abnahme; also recorded: vermindern
- S-Phase (MCF-7-Zellen; [11]): vermindern

Molecule: H-LFYKKVPKKKRKV-OH [P5, NH2-L-F-Y-K-K-V-P-K-K-K-R-K-V-COOH]
- G1-Phase (SAOS-2-Zellen; [10]): Zunahme
- S-Phase (SAOS-2-Zellen; [10]): Abnahme
- G1-Phase (MCF-7-Zellen; [5]): vermindert
- S-Phase (MCF-7-Zellen; [5]): steigert
- S-Phase (MCF-7-Zellen; [7]): vermindern
- S-Phase (MCF-7-Zellen; [11]): vermindern

Molecule: NH2-KVLYFKRQIKIWFQNRRMKWKK-COOH (H-KVLYFKRQIKIWFQNRRMKWKK-OH) [P8]
- G1-Phase (MCF-7-Zellen; [7]): Zunahme
- G2/M-Phase (MCF-7-Zellen; [7]): Zunahme
- Morphologie der behandelten Zellen (MCF-7-Zellen; [7]): entspricht der apoptotischer Zellen
- S-Phase (MCF-7-Zellen; [7]): Abnahme

Molecule: Penetratin [reference compound]
- Bremsen der Zellzyklusprogression von SAOS-2-Zellen (SAOS-2-Zellen; Tab 2, SAOS-2 stimulated with 10 % FCS): nicht
- S-Phase (MCF-7-Zellen; [7]): keinen Effekt
- S-Phase (MCF-7-Zellen; [11]): keinen Effekt
